Measured values: patent US9394282B2, “Pyrazole carboxamides as Janus kinase inhibitors” (Merck Sharp & Dohme Corp., priority 2011, dated 2016)

Target: JAK1 (Homo sapiens (Human), UniProt P23458)
Assay: Jak biochemical HTRF assay, JAK1
Details: recombinant purified GST-tagged catalytic domain; HTRF format; [ATP] 31.8 μM
Description: Jak Biochemical HTRF Assay Protocol
Subsequent reagent additions employed an Agilent Bravo.

Sequence of JAK1 (P23458 875-1153): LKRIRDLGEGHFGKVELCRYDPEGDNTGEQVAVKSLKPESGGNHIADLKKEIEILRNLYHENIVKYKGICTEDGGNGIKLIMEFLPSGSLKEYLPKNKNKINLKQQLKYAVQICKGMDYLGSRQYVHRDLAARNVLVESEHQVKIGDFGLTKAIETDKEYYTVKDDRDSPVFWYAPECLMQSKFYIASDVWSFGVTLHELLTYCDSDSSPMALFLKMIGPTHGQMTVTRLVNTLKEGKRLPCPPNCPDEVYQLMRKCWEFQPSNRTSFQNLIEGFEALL

| Compound | IC50 [µM] |
| --- | --- |
| CC(C)(C)COC(=O)N1CC[C@@H](n2cc(C(N)=O)c(Nc3ccc(F)cc3)n2)[C@H](C#N)C1 (racemic) [Example 5-18, 2,2-dimethylpropyl (3R,4R and 3S,4S)-4-{4-carbamoyl-3-[(4-fluorophenyl)amino]-1H-pyrazol-1-yl}-3-cyanopiperidine-1-carboxylatc] | 0.132 |
| N#CCC1(COC(=O)N2CC[C@@H](n3cc(C(N)=O)c(Nc4ccc(F)cc4)n3)[C@H](C#N)C2)CC1 (racemic) [Example 5-39, [1-(cyanomethyl)cyclopropyl]methyl (3R,4R and 3S,4S)-4-{4-carbamoyl-3-[(4-fluorophenyl)amino]-1H-pyrazol-1-yl}-3-cyanopiperidine-1-carboxylate] | 0.025 |
| N#C[C@@H]1CN(C(=O)OC2CCOCC2)CC[C@H]1n1cc(C(N)=O)c(Nc2ccc(F)cc2)n1 (racemic) [Example 5-13, tetrahydro-2H-pyran-4-yl (3R,4R and 3S,4S)-4-{4-carbamoyl-3-[(4-fluorophenyl)amino]-1H-pyrazol-1-yl}-3-cyanopiperidine-1-carboxylate] | 0.02 |
| N#C[C@@H]1CN(C(=O)OCCN2CCCC2=O)CC[C@H]1n1cc(C(N)=O)c(Nc2ccc(F)cc2)n1 (racemic) [Example 5-15, 2-(2-oxopyrrolidin-1-yl)ethyl (3R,4R and 3S,4S)-4-{4-carbamoyl-3-[(4-fluorophenyl)amino]-1H-pyrazol-1-yl}-3-cyanopiperidine-1-carboxylate] | 0.019 |
| CC(C)(COC(=O)N1CC[C@H](n2cc(C(N)=O)c(Nc3ccc(F)cc3)n2)[C@H](C#N)C1)n1cccn1 (racemic) [Example 5-53, 2-methyl-2-(1H-pyrazol-1-yl)propyl (3R,4S and 3S,4R)-4-{4-carbamoyl-3-[(4-fluorophenyl)amino]-1H-pyrazol-1-yl}-3-cyanopiperidine-1-carboxylate] | 0.445 |
| N#C[C@@H]1CN(C(=O)OCC(F)(F)F)CC[C@H]1n1cc(C(N)=O)c(Nc2ccc(F)cc2)n1 (racemic) [Example 5-28, 2,2,2-trifluoroethyl (3R,4R and 3S,4S)-4-{4-carbamoyl-3-[(4-fluorophenyl)amino]-1H-pyrazol-1-yl}-3-cyanopiperidine-1-carboxylate] | 0.01 |
| CC(C)(C)CCOC(=O)N1CC[C@@H](C#N)C(n2cc(C(N)=O)c(Nc3ccc(F)cc3)n2)C1 (mixture of isomers) [Example 4, 3,3-Dimethylbutyl(3S,4R and 3R,4S)-3-{4-carbamoyl-3-[(4-fluorophenyl)amino]-1H-pyrazol-1-yl}-4-cyanopiperidine-1-carboxylate] | 0.008 |
| CC(C)(COC(=O)N1CC[C@@H](n2cc(C(N)=O)c(Nc3ccc(F)cc3)n2)[C@H](C#N)C1)n1cccn1 (racemic) [Example 5-27, 2-methyl-2-(1H-pyrazol-1-yl)propyl (3R,4R and 3S,4S)-4-{4-carbamoyl-3-[(4-fluorophenyl)amino]-1H-pyrazol-1-yl}-3-cyanopiperidine-1-carboxylate] | 0.092 |
| N#CCC1(COC(=O)N2CC[C@H](n3cc(C(N)=O)c(Nc4ccc(F)cc4)n3)[C@H](C#N)C2)CC1 (racemic) [Example 5-64, [1-(cyanomethyl)cyclopropyl]methyl (3R,4S and 3S,4R)-4-{4-carbamoyl-3-[(4-fluorophenyl)amino]-1H-pyrazol-1-yl}-3-cyanopiperidine-1-carboxylate] | 0.44 |
| CCOC(=O)N1CC[C@@H](n2cc(C(N)=O)c(Nc3ccc(F)cc3)n2)[C@H](C#N)C1 (racemic) [Example 5-23, ethyl (3R,4R and 3S,4S)-4-{4-carbamoyl-3-[(4-fluorophenyl)amino]-1H-pyrazol-1-yl}-3-cyanopiperidine-1-carboxylate] | 0.01 |
| N#C[C@@H]1CN(C(=O)OC2CCOC2)CC[C@@H]1n1cc(C(N)=O)c(Nc2ccc(F)cc2)n1 (mixture of isomers) [Example 5-51, tetrahydrofuran-3-yl (3R,4S and 3S,4R)-4-{4-carbamoyl-3-[(4-fluorophenyl)amino]-1H-pyrazol-1-yl}-3-cyanopiperidine-1-carboxylate] | 0.212 |
| N#C[C@@H]1CN(C(=O)OCC(F)F)CC[C@H]1n1cc(C(N)=O)c(Nc2ccc(F)cc2)n1 (racemic) [Example 5-16, 2,2-difluoroethyl (3R,4R and 3S,4S)-4-{4-carbamoyl-3-[(4-fluorophenyl)amino]-1H-pyrazol-1-yl}-3-cyanopiperidine-1-carboxylate] | 0.008 |
| N#C[C@@H]1CN(C(=O)OCCN2CCOCC2)CC[C@H]1n1cc(C(N)=O)c(Nc2ccc(F)cc2)n1 (racemic) [Example 5-4, 2-morpholin-4-ylethyl (3R,4R and 3S,4S)-4-{4-carbamoyl-3-[(4-fluorophenyl)amino]-1H-pyrazol-1-yl}-3-cyanopiperidine-1-carboxylate] | 0.029 |

Second part, the molecule after the results:

| IC50 [µM] | Compound |
| --- | --- |
| 0.017 | Cn1ccc(CN2CC[C@@H](n3cc(C(N)=O)c(Nc4ccc(F)cc4)n3)[C@H](C#N)C2)n1 (racemic) [Example 6-26, 1-{(3R,4R and 3S,4S)-3-cyano-1-[(1-methyl-1H-pyrazol-3-yl)methyl]piperidin-4-yl}-3-[(4-fluorophenyl)amino]-1H-pyrazole-4-carboxamide] |
| 0.083 | N#C[C@@H]1CN(C(=O)OCC(F)F)CC[C@@H]1n1cc(C(N)=O)c(Nc2ccc(F)cc2)n1 (racemic) [Example 5-65, 2,2-difluoroethyl (3R,4S and 3S,4R)-4-{4-carbamoyl-3-[(4-fluorophenyl)amino]-1H-pyrazol-1-yl}-3-cyanopiperidine-1-carboxylate] |
| 0.006 | N#C[C@@H]1CN(Cc2cncc(F)c2)CC[C@H]1n1cc(C(N)=O)c(Nc2ccc(F)cc2)n1 (racemic) [Example 6-28, 1-{(3R,4R and 3S,4S)-3-cyano-1-[(5-fluoropyridin-3-yl)methyl]piperidin-4-yl}-3-[(4-fluorophenyl)amino]-1H-pyrazole-4-carboxamide] |
| 0.0003 | N#C[C@@H]1CCOC[C@H]1n1cc(C(N)=O)c(Nc2ccccc2)n1 (single isomer, unassigned) [Example 9-38, 1-[(3R,4S or 3S,4R)-4-cyanotetrahydro-2H-pyran-3-yl]-3-(phenylamino)-1H-pyrazole-4-carboxamide] |
| 0.0002 | N#C[C@@H]1CCOC[C@H]1n1cc(C(N)=O)c(Nc2ccc(Cl)c(F)c2)n1 (single isomer, unassigned) [Example 9-13, 3-[(4-chloro-3-fluorophenyl)amino]-1-[(3S,4R or 3R,4S)-4-cyanotetrahydro-2H-pyran-3-yl]-1H-pyrazole-4-carboxamide] |
| 0.046 | N#C[C@@H]1CCOC[C@H]1n1cc(C(N)=O)c(Nc2ccc(C(F)(F)F)nc2)n1 (single isomer, unassigned) [Example 9-15, 1-[(3S,4R or 3R,4S)-4-cyanotetrahydro-2H-pyran-3-yl]-3-{[6-(trifluoromethyl)pyridin-3-yl]amino}-1H-pyrazole-4-carboxamide] |
| 0.0007 | N#C[C@H]1CCOC[C@@H]1n1cc(C(N)=O)c(Nc2ccc(C(F)(F)F)nc2)n1 (single isomer, unassigned) [Example 9-14, 1-[(3R,4S or 3S,4R)-4-cyanotetrahydro-2H-pyran-3-yl]-3-{[6-(trifluoromethyl)pyridin-3-yl]amino}-1H-pyrazole-4-carboxamide] |
| 0.023 | N#C[C@@H]1CN(CCC2CCOCC2)CC[C@H]1n1cc(C(N)=O)c(Nc2ccc(F)cc2)n1 (racemic) [Example 6-31, 1-{(3R,4R and 3S,4S)-3-cyano-1-[2-(tetrahydro-2H-pyran-4-yl)ethyl]piperidin-4-yl}-3-[(4-fluorophenyl)amino]-1H-pyrazole-4-carboxamide] |
| 0.01 | N#C[C@H]1CCOC[C@@H]1n1cc(C(N)=O)c(Nc2ccccc2)n1 (single isomer, unassigned) [Example 9-37, 1-[(3S,4R or 3R,4S)-4-cyanotetrahydro-2H-pyran-3-yl]-3-(phenylamino)-1H-pyrazole-4-carboxamide] |
| 0.0004 | N#C[C@@H]1CCOC[C@H]1n1cc(C(N)=O)c(Nc2ccc(Cl)c(Cl)c2)n1 (single isomer, unassigned) [Example 9-11, 1-[(3S,4R or 3R,4S)-4-cyanotetrahydro-2H-pyran-3-yl]-3-[(3,4-dichlorophenyl)amino]-1H-pyrazole-4-carboxamide] |
| 0.004 | N#C[C@@H]1CCN(C(=O)OCCN2CCOCC2)CC1n1cc(C(N)=O)c(Nc2ccc(F)cc2)n1 (mixture of isomers) [Example 5-87, 2-morpholin-4-ylethyl (3S,4R and 3R,4S)-3-{4-carbamoyl-3-[(4-fluorophenyl)amino]-1H-pyrazol-1-yl}-4-cyanopiperidine-1-carboxylate] |
| 0.016 | N#C[C@H]1CCOC[C@@H]1n1cc(C(N)=O)c(Nc2ccc(Cl)c(F)c2)n1 (single isomer, unassigned) [Example 9-12, 3-[(4-chloro-3-fluorophenyl)amino]-1-[(3R,4S or 3S,4R)-4-cyanotetrahydro-2H-pyran-3-yl]-1H-pyrazole-4-carboxamide] |
| 0.003 | COC(C)(C)c1ccc(Nc2nn([C@H]3COCC[C@@H]3C#N)cc2C(N)=O)cc1 (single isomer, unassigned) [Example 9-23, 1-[(3R,4S or 3S,4R)-4-cyanotetrahydro-2H-pyran-3-yl]-3-{[4-(1-methoxy-1-methylethyl)phenyl]amino}-1H-pyrazole-4-carboxamide] |
| 0.0005 | N#C[C@H]1CCOC[C@@H]1n1cc(C(N)=O)c(Nc2cnc3cc(Cl)ccc3c2)n1 (single isomer, unassigned) [Example 9-22, 3-[(7-chloroquinolin-3-yl)amino]-1-[(3R,4S or 3S,4R)-4-cyanotetrahydro-2H-pyran-3-yl]-1H-pyrazole-4-carboxamide] |
| 0.016 | COC1CC(CN2CC[C@@H](n3cc(C(N)=O)c(Nc4ccc(F)cc4)n3)[C@H](C#N)C2)C1 (mixture of isomers) [Example 6-30, 1-{(3R,4R and 3S,4S)-3-cyano-1-[(3-methoxycyclobutyl)methyl]piperidin-4-yl}-3-[(4-fluorophenyl)amino]-1H-pyrazole-4-carboxamide] |
